According to patent publication US6423688B1, “Dipeptide and related compounds which inhibit leukocyte adhesion mediated by VLA-4” (Athena Neurosciences, Inc., priority 1997, dated 2002):
Peptide text beside a SMILES is read from it. * marks the point of attachment. Tos = Cc1ccc(S(=O)(=O)*)cc1

melting point	Compound
178 to 180 °C	Cc1ccc(S(=O)(=O)N2CCC[C@H]2C(=O)N[C@@H](CC(N)=O)C(=O)O)cc1 [Example 2, N-(Toluene-4-sulfonyl)-L-prolyl-L-asparagine] (Tos-Pro-Asn-OH)
45 to 55 °C	Cc1ccc(S(=O)(=O)N2CCC[C@H]2C(=O)N[C@@H](CCC(N)=O)C(=O)O)cc1 [Example 5, N-(Toluene-4-sulfonyl)-L-prolyl-L-glutamine] (Tos-Pro-Gln-OH)
